The test system of the assay is P388 leukemia ip, CD2F1 mice, survival T/C. Kind of assay: NCI In Vivo Anticancer Drug Screen. Data for tumor model P388 Leukemia (intraperitoneal) in CD2F1 (CDF1) mice. As to conditions: endpoint: median survival time, higher = longer survival. The method, boiled down:
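Mice carrying the transplanted tumor received test compound or vehicle. Survival was recorded in each group, and the value is the treated-group measurement divided by that of the vehicle-treated control group.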

The mark [1] stands for this setting: dose: 50.0 mg/kg/injection, schedule: Q01DX005 (ip), vehicle: saline with Tween-80.
[2] abbreviates: dose: 200.0 mg/kg/injection, schedule: Q01DX005 (ip), vehicle: saline with Tween-80.
The mark [3] stands for this setting: dose: 50.0 mg/kg/injection, schedule: Q01DX009 (ip), vehicle: saline.
[4] abbreviates: dose: 100.0 mg/kg/injection, schedule: Q01DX009 (ip), vehicle: saline.
Setting [5] is: dose: 200.0 mg/kg/injection, schedule: Q01DX009 (ip), vehicle: saline.
The mark [6] stands for this setting: dose: 50.0 mg/kg/injection, schedule: Q01DX009 (ip), vehicle: saline with Tween-80.
[7] abbreviates: dose: 100.0 mg/kg/injection, schedule: Q01DX009 (ip), vehicle: saline with Tween-80.
The mark [8] stands for this setting: dose: 50.0 mg/kg/injection, schedule: Q01DX005 (ip), vehicle: Klucel (hydroxypropylcellulose) (HPC).
The mark [9] stands for this setting: dose: 100.0 mg/kg/injection, schedule: Q01DX005 (ip), vehicle: Klucel (hydroxypropylcellulose) (HPC).
Setting [10] is: dose: 200.0 mg/kg/injection, schedule: Q01DX005 (ip), vehicle: Klucel (hydroxypropylcellulose) (HPC).
[11] abbreviates: dose: 60.0 mg/kg/injection, schedule: Q01DX005 (ip), vehicle: saline with Tween-80.
[12] abbreviates: dose: 120.0 mg/kg/injection, schedule: Q01DX005 (ip), vehicle: saline with Tween-80.
Where [13] appears, read: dose: 240.0 mg/kg/injection, schedule: Q01DX005 (ip), vehicle: saline with Tween-80.
[14] abbreviates: dose: 12.5 mg/kg/injection, schedule: Q01DX009 (ip), vehicle: saline with Tween-80.
Setting [15] is: dose: 25.0 mg/kg/injection, schedule: Q01DX009 (ip), vehicle: saline with Tween-80.
Where [16] appears, read: dose: 50.0 mg/kg/injection, schedule: Q01DX009 (ip), vehicle: Klucel (hydroxypropylcellulose) (HPC).
The mark [17] stands for this setting: dose: 100.0 mg/kg/injection, schedule: Q01DX009 (ip), vehicle: Klucel (hydroxypropylcellulose) (HPC).
The mark [18] stands for this setting: dose: 200.0 mg/kg/injection, schedule: Q01DX009 (ip), vehicle: Klucel (hydroxypropylcellulose) (HPC).
Setting [19] is: dose: 25.0 mg/kg/injection, schedule: Q01DX005 (ip), vehicle: saline with Tween-80.

The values below come from PubChem BioAssay AID330 (DTP/NCI, 2004).

Values joined by “and” are separate entries in the source; they are usually repeats but may differ in a detail not shown here. Equal entries are not always repeated. Inconclusive results and toxic doses are left out.

In the case of `CN(O)C(=O)CNC(=O)OC(C)(C)C`, the T/C is 100 % of control under setting [1]; 98 % of control (dose: 100.0 mg/kg/injection, schedule: Q01DX005 (ip), vehicle: saline with Tween-80); 100 % of control under setting [2]; 105 % of control (dose: 400.0 mg/kg/injection, schedule: Q01DX005 (ip), vehicle: saline with Tween-80).

Take `CC[C@@]1(O)C[C@H]2CN(CCc3c([nH]c4ccccc34)[C@@](C(=O)OC)(c3cc4c(cc3OC)N[C@H]3[C@@](O)(C(=O)OC)[C@H](OC(C)=O)[C@]5(CC)C=CCN6CC[C@]43[C@@H]65)C2)C1`: the T/C (dose: 16.0 mg/kg/injection, schedule: Q01DX001 (ip), vehicle: water) was 153 % of control and 164 % of control.

`COC(=N)C(Cl)(Cl)Cl`: the T/C by setting is: under setting [3], 97 % of control; under setting [4], 100 % of control; under setting [5], 95 % of control.

For `O=C(NC1CCCCC1)C(=O)c1cc(Cl)c(Cl)c(Cl)c1Cl`, the T/C by setting is: under setting [6], 106 % of control; under setting [7], 114 % of control; (dose: 200.0 mg/kg/injection, schedule: Q01DX009 (ip), vehicle: saline with Tween-80) 103 % of control.

On to `CC1=NN(C(C)(C)C)[Si]2(C(C)(C)C)C1[Si]1(C(C)(C)C)C2C(C)=NN1C(C)(C)C` (stereo not given), for which the T/C was 92 % of control (dose: 25.0 mg/kg/injection, schedule: Q01DX005 (ip), vehicle: Klucel (hydroxypropylcellulose) (HPC)); 86 % of control under setting [8]; 90 % of control under setting [9]; 90 % of control under setting [10].

On to `O=C1CSC(c2ccccc2Br)N1c1nncs1` (stereo not given), for which the T/C runs as follows: under setting [11], 101 % of control; under setting [12], 97 % of control; under setting [13], 93 % of control.

On to `Cc1cnc2c(N)cc(C)c(C)c2c1`, for which the T/C was 94 % of control under setting [14]; 100 % of control under setting [15]; 99 % of control and 100 % of control under setting [6]; 86 % of control under setting [7].

For `O=S1(=O)C2C=CC1CCCC2`, the T/C is 95 % of control (dose: 12.5 mg/kg/injection, schedule: Q01DX009 (ip), vehicle: saline); 90 % of control (dose: 25.0 mg/kg/injection, schedule: Q01DX009 (ip), vehicle: saline); 92 % of control and 96 % of control under setting [3].

As to `CSc1cccc(NC(=O)OCCOc2ccc(Cl)cc2)c1`, the T/C under setting [16] is 102 % of control, the T/C under setting [17] is 100 % of control and the T/C under setting [18] is 92 % of control.

Consider `Cc1cc(C)n(-c2cc(N3CCOCC3)ncn2)n1`, for which the T/C is 96 % of control under setting [3], 95 % of control under setting [4] and 98 % of control under setting [5].

`Nc1nc(=S)c2ncn(C3OC(CO)C(O)C3O)c2[nH]1` (stereo not given): the T/C is 168 % of control (dose: 2.0 mg/kg/injection, schedule: Q01DX010 (ip), vehicle: saline); 118 % of control (dose: 8.0 mg/kg/injection, schedule: Q01DX010 (ip), vehicle: saline); 104 % of control under setting [19]; 120 % of control under setting [1]; 122 % of control (dose: 100.0 mg/kg/injection, schedule: Q04DX003 (ip), vehicle: saline sonified); 117 % of control (dose: 132.0 mg/kg/injection, schedule: Q04DX003 (ip), vehicle: saline with Tween-80). Moreover, the T/C under setting [2] is 150 % of control and 158 % of control; the T/C (dose: 400.0 mg/kg/injection, schedule: Q04DX003 (ip), vehicle: saline sonified) was 86 % of control.

`CN=C(N)N/N=C(\C)c1ccc2c(c1)Cc1ccccc1-2`: the T/C (dose: 25.0 mg/kg/injection, schedule: Q04DX002 (ip), vehicle: saline with Tween-80) was 122 % of control.

On to `CCCCCCCNC1=C(N2CC2)C(=O)C(NCCCCCCC)=C(N2CC2)C1=O`, for which the T/C by setting is: (dose: 1.25 mg/kg/injection, schedule: Q01DX009 (ip), vehicle: saline) 100 % of control; (dose: 2.5 mg/kg/injection, schedule: Q01DX009 (ip), vehicle: saline) 105 % of control and 107 % of control; (dose: 5.0 mg/kg/injection, schedule: Q01DX009 (ip), vehicle: saline) 105 % of control and 106 % of control; (dose: 10.0 mg/kg/injection, schedule: Q01DX009 (ip), vehicle: saline) 106 % of control and 94 % of control; (dose: 20.0 mg/kg/injection, schedule: Q01DX009 (ip), vehicle: saline) 115 % of control and 90 % of control.

As to `c1ccc(N=C(Nc2ccccc2)C(=Nc2ccccc2)Nc2ccccc2)cc1`, the T/C under setting [8] is 100 % of control, the T/C under setting [9] is 96 % of control and the T/C under setting [10] is 98 % of control.

In the case of `CCN(CC)C(=O)C1CCCCN1Cc1c[nH]c2ccccc12` (stereo not given), the T/C reads like this: under setting [14], 104 % of control; under setting [15], 109 % of control; under setting [6], 101 % of control; under setting [7], 99 % of control.

Take `O=C1CCC(N2C(=O)C3CCCCC3C2=O)C(=O)O1` (stereo not given): the T/C is 94 % of control under setting [16], 108 % of control under setting [17] and 99 % of control under setting [18].

On to `O=[N+]([O-])/C=C/c1cc2c(cc1Cl)OCO2`, for which the T/C was 107 % of control under setting [8], 111 % of control under setting [9] and 95 % of control under setting [10].

As to `O=C1CN(c2ccccc2)CC(=O)N2CCCN12`, the T/C is 100 % of control (dose: 12.5 mg/kg/injection, schedule: Q01DX005 (ip), vehicle: saline with Tween-80); 96 % of control under setting [19]; 100 % of control under setting [1].

Take `CC(=O)OCC(C)[C@H](C)C(=O)C1OCOC(C2CC(=O)NC(=O)C2)[C@@H]1OC(C)=O` (stereo not given in full): the T/C reads like this: (dose: 0.01 mg/kg/injection, schedule: Q01DX009 (ip), vehicle: distilled water + alcohol) 100 % of control; (dose: 0.03 mg/kg/injection, schedule: Q01DX009 (ip), vehicle: distilled water + alcohol) 98 % of control; (dose: 0.06 mg/kg/injection, schedule: Q01DX009 (ip), vehicle: distilled water + alcohol) 98 % of control; (dose: 0.12 mg/kg/injection, schedule: Q01DX009 (ip), vehicle: distilled water + alcohol) 100 % of control.

With `CC1=NN(c2cccc(C(F)(F)F)c2)C(=O)C1`, the T/C was 100 % of control (dose: 25.0 mg/kg/injection, schedule: Q01DX009 (ip), vehicle: Klucel (hydroxypropylcellulose) (HPC)); 106 % of control under setting [16]; 102 % of control under setting [17].

With `Cc1nc(Br)c(Br)n1C`, the T/C under setting [11] was 93 % of control and the T/C under setting [12] is 88 % of control.

Regarding `O=C(O)C(CS)NC1CC(=O)N(Cc2ccccc2)C1=O` (stereo not given), the T/C is 110 % of control under setting [8], 103 % of control under setting [9] and 103 % of control under setting [10].

For `CCC(=O)c1cc(Cl)ccc1O`, the T/C reads like this: (dose: 37.5 mg/kg/injection, schedule: Q01DX001 (ip), vehicle: other) 104 % of control; (dose: 75.0 mg/kg/injection, schedule: Q01DX001 (ip), vehicle: other) 100 % of control; (dose: 150.0 mg/kg/injection, schedule: Q01DX001 (ip), vehicle: other) 100 % of control.

Regarding `C/C(=N\NC(=S)N1CCC1)c1ccccn1`, the T/C was 99 % of control (dose: 1.56 mg/kg/injection, schedule: Q01DX005 (ip), vehicle: other); 103 % of control (dose: 3.12 mg/kg/injection, schedule: Q01DX005 (ip), vehicle: other); 99 % of control (dose: 6.25 mg/kg/injection, schedule: Q01DX005 (ip), vehicle: other); 95 % of control (dose: 6.25 mg/kg/injection, schedule: Q01DX009 (ip), vehicle: saline with Tween-80); 94 % of control (dose: 12.5 mg/kg/injection, schedule: Q01DX005 (ip), vehicle: other); 99 % of control under setting [14]. Under “dose: 25.0 mg/kg/injection, schedule: Q01DX005 (ip), vehicle: other”, the T/C is 100 % of control.

Turning to `COc1ccc(C2=C(c3ccccc3)C(C)(C)Oc3ccc4ccccc4c32)cc1`, the T/C was 95 % of control under setting [8], 95 % of control under setting [9] and 104 % of control under setting [10].

`CC1COS(=O)(=O)CS(=O)(=O)O1` (stereo not given): the T/C under setting [11] was 100 % of control.

Regarding `CCCCC(O)CNc1ccccc1` (stereo not given), the T/C by setting is: under setting [11], 105 % of control; under setting [12], 99 % of control; under setting [13], 90 % of control.
